Measured values published in publication PMC10057996, “A Comparative Study of the Inhibitory Action of Berberine Derivatives on the Recombinant Protein FtsZ of E. coli” (International Journal of Molecular Sciences, 2023).
Counter-ions that a name gives are not always drawn.

What was measured:
FtsZ [1] = molecular target: T1, FtsZ (Escherichia coli, UniProt P0A9A6); assay: FtsZ GTPase assay (BIOMOL Green, Pi release); type: biochemical, E. coli; conditions: for inhibition mechanism on FtsZ GTPase activity: from KM and Vmax changes at 40 µM compound; for Vmax (Pi Released/min): in presence of 40 µM compound, 6 µM FtsZ, pH 6.8, untreated 0.63 ± 0.01
T1 construct: made in house; host or cells: E. coli
Method: The functional effect of the berberine analogues 1c,d,f,i, and 1-2g,h on FtsZ was investigated by enzymatic assays. A recombinant form of FtsZ was produced in E. coli, purified according to [21], and used for binding assays. The GTPase activity of the FtsZ protein was assayed in the presence of the berberine-related compounds at 40 μM concentration and was monitored in comparison with the untreated protein at different GTP concentrations. The kinetic parameters were calculated according to the Michaelis–Menten equation using GraphPad Prism 8 for all the berberine-related compounds. The software returned KM (μM) and Vmax (Pi released/min) kinetic parameters that indicated the mechanism of inhibition exerted by each compound.
The determination of the inhibition constant Ki for these compounds was performed to further investigate the mode of inhibition and clarified the potency of the competitive inhibitors. The Ki values were calculated performing kinetic analyses at different concentrations of competitive inhibitors (20 μM, 40 μM, and 60 μM).
The FtsZ GTPase assay was performed using 6 μM FtsZ in reaction buffer 25 mM PIPES/NaOH, pH 6.8. The mixture containing FtsZ was incubated for 30 min at 30 °C, and different concentrations of GTP (from 0 µM to 500 µM) were added for a reaction time of 10 min, either in the absence or in the presence of 40 µM 1c, 1d, 1f, 1i, 1g, 1h, 2g, and 2h. The reaction was performed for 10 min and stopped by the addition of 100 µL BIOMOL Green reagent. The amount of Pi released during the assembly of FtsZ was monitored using BIOMOL Green phosphate reagent (Biomol, Milan, Italy) after incubation at 25 °C for 25 min by measuring the absorbance at 620 nm. The negative control (without enzyme) was subtracted from all the readings. The experiment was performed in duplicate. The data were elaborated in order to report U/mg VS substrate concentration, and kinetic parameters were fitted by nonlinear regression with GraphPad Prism 8 (GraphPad Software, San Diego, CA, USA). The inhibition constant (Ki) for all competitive inhibitors was calculated performing different kinetic analyses in the presence of 20, 40, and 60 µM of compounds and using the following equation: Ki=I/α−1 where α=KMapp/KM

FtsZ [2] = molecular target: T1, FtsZ; assay: Fluorescence binding assay (quenching of compound fluorescence by FtsZ); parameters: species or system E. coli; conditions: dissociation constant Kd, excitation 295 nm, emission 327 nm, 20 °C
Method: Therefore, the intrinsic fluorescence of compound 1c was monitored at increasing concentrations of recombinant FtsZ. The sample was excited at 295 nm, and the fluorescence emission of the compound 1c was recorded.
A 1.5 mL solution containing the 1c compound was titrated by successive additions of FtsZ protein (from 0.010 to 0.120 µM). Titrations were done manually, and fluorescence spectra were measured in the range of 280–500 nm at the excitation wavelength of 295 nm. The fluorescence spectra were recorded using a Horiba Scientific Fluoromax-4 spectrofluorometer, using a quartz cell with an optical path of 1 cm, under controlled temperature conditions (Peltier control system at 20 °C). All experiments were carried out in duplicate. The change in the fluorescence intensity of the reaction set was fitted into the “one site-specific binding” equation of GraphPad Prism 8 (GraphPad Software, San Diego, CA, USA).
Figure 6 Fluorescence binding assay of compound 1c with FtsZ. (a) Emission fluorescence spectra at different concentrations of FtsZ. (b) ΔF at 325 nm vs FtsZ concentration. Experimental data were adjusted to a non-linear regression, and the Kd binding constant was estimated using GraphPad Prism 8. The experiments were performed in duplicate, and the standard deviation is reported as error bars.

FtsZ [3] = molecular target: T1, FtsZ; assay: FtsZ polymerization assay by sedimentation, SDS-PAGE densitometry; type: biochemical, E. coli; conditions: inhibitor concentration 60 µM, 150 µM GTP
Method: Inhibition of the GTPase activity of FtsZ might prevent the polymerization of the protein, which is well known to occur in the presence of GTP. We then investigated the effect of berberine analogues on the polymerization of FtsZ. The recombinant protein was incubated with 150 µM GTP in the absence and in the presence of increasing concentrations of berberine-related compounds. The FtsZ filaments were purified by centrifugation, analysed by SDS-PAGE, and the amount of polymerized protein was determined by densitometric analysis of the corresponding Coomassie-stained gel bands.
Assays for FtsZ polymerization by sedimentation were performed by incubating 6 μM FtsZ with 150 µM GTP in 25 mM PIPES/NaOH, pH 6.8 for 60 min at 25 °C. The assays were carried out in the presence and in the absence of 20 μM, 40 μM, and 60 μM of berberine analogues. The reaction mixtures were centrifuged for 60 min at 14,000 rpm, the pellets were run on 12.5% sodium dodecyl sulphate (SDS)-polyacrylamide gels, and stained by Coomassie blue. Subsequently, the images of the gels were acquired by ChemiDocTM, and the relative amount of FtsZ in the bands was determined densitometrically using the Quantity One software.
Figure 3 Polymerization assay of recombinant FtsZ (6 µM) was carried out in 25 mM PIPES/NaOH, pH 6.8, and 150 µM of GTP in the presence of berberine analogues. […]

FtsZ [4] = molecular target: T1, FtsZ; assay: TEM microscopy of FtsZ protofilaments; type: biochemical, E. coli; conditions: 60 µM compound, 150 µM GTP
Method: The capability of berberine analogue 1i to inhibit FtsZ polymerization was also assessed by TEM microscopy, by analysing the FtsZ protofilaments of in the presence of 60 µM 1i in comparison with the untreated sample.
FtsZ polymerization reaction solutions were diluted 1:10 in polymerization buffer in the presence and in the absence of 60 µM 1c and 1i. Then, 5 µL drops of the samples for TEM analysis were placed on a carbon-coated copper TEM grid for 20 min. Excess solution was wicked away with filter paper. Negative staining with 1% phosphotungstic acid (PTA) solution at pH 7.0 was carried out by depositing a drop of PTA solution on the grid for 1 min and then blotted dry with filter paper. The grid was allowed to dry, and images were collected using a FEI TECNAI G2 S-twin apparatus operating at 120 kV (LaB6 source).
Figure 4 Transmission electron microscopic images of FtsZ in the absence (a) and in the presence of 1i inhibitors (b). The protofilaments are seen to be polymerized in an organized manner in the absence of inhibitor (a). 1i at 60 μM concentrations inhibit the FtsZ polymerization. Experimental conditions for all the FtsZ polymerization studies were […], PIPES 25 mM pH 6.8, KCl 50 mM, and 150 µM GTP.

E. coli = assay: Minimum inhibitory concentration determination; type: cell-based; conditions: Escherichia coli, 24 h, read-out: MIC E. coli
Method: Finally, we evaluated the in vitro antimicrobial activity of the newly synthesized berberine analogues (2g,h) on E. coli strain. The Minimal Inhibitory Concentrations (MICs) of both compounds were determined as the lowest concentration showing no visible growth after 24 h of incubation. The MIC values for 2g and 2h are reported in Table 4, together with the most interesting compounds previously reported.
In brief, the bacterial strain was incubated overnight in LB at 37 °C. The cultures were diluted approximately to 5 × 10^5 CFU/mL, and 50 μL of bacterial suspension was added to ten wells and incubated with serial dilutions of berberine analogues from an initial concentration of 500 µM. The sterility control well contained 100 μL of LB, while the growth control well contained 100 μL of microbial suspension. […] All determinations of all assays were performed in triplicate.

T1 sequence (P0A9A6 whole entry): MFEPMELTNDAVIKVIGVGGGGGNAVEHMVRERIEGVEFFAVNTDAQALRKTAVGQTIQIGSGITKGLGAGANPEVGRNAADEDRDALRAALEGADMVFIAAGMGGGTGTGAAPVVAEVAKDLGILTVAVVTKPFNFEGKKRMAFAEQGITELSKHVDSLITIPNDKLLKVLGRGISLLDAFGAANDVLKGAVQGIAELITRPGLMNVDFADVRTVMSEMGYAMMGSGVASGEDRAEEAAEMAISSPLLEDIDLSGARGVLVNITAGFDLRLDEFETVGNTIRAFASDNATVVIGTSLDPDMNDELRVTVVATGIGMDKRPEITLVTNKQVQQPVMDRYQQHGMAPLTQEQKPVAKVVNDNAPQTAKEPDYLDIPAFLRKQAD

Structure (SMILES)	Ki (FtsZ [1]) [µM]	inhibition mechanism on FtsZ GTPase activity (FtsZ [1])	Vmax (Pi Released/min) (FtsZ [1]) [Pi released/min]	Kd (FtsZ [2]) [µM]	amount of polymerized FtsZ (FtsZ [3])	FtsZ protofilaments observed by TEM (FtsZ [4])	MIC (E. coli) [µM]	melting point [°C]
COc1cccc(CN(C)CCc2ccc3c(c2)OCO3)c1OC [1c]	25	classical competitive inhibition mechanism	0.54 ± 0.03	0.0266				
CCN(CCc1ccc2c(c1)OCO2)Cc1cccc(OC)c1OC [1d]	44	classical competitive inhibition mechanism	0.58 ± 0.01					
CCCCCCN(CCc1ccc2c(c1)OCO2)Cc1cccc(OC)c1OC [1f]		non-competitive inhibition mechanism	0.35 ± 0.01					
Clc1ccc(CNCCc2ccc3c(c2)OCO3)cc1 [1g]	41	classical competitive inhibition mechanism	0.60 ± 0.02					
c1ccc2c(CNCCc3ccc4c(c3)OCO4)cccc2c1 [1h]	119	classical competitive inhibition mechanism	0.59 ± 0.01					
O=[N+]([O-])c1ccccc1CNCCc1ccc2c(c1)OCO2 [1i]		non-competitive inhibition mechanism			almost negligible	no protofilaments could be observed		
CN(CCc1ccc2c(c1)OCO2)Cc1ccc(Cl)cc1 [2g, 2-(1,3-Benzodioxol-5-yl)-N-[(4-chlorobenzyl]-N-methylethan-1-amine hydrochloride]		acompetitive inhibitory mechanism					128	
CN(CCc1ccc2c(c1)OCO2)Cc1cccc2ccccc12.Cl [2h, 2-(2H-1,3-Benzodioxol-5-yl)-N-methyl-N-[(naphthalen-1-yl)methyl]ethan-1-amine hydrochloride]	51	classical competitive inhibition mechanism	0.58 ± 0.01				> 512	188 to 190
